Measured values as given in patent US9494576B2, “Methods for detecting contaminants in solutions containing glucose polymers” (ROQUETTE FRERES, priority 2011, dated 2016).
Where two headings read alike, the source gives them in different places.

Assays:
THP-1 cells [1] = experiment: Production of RANTES by differentiated (MDP-sensitized) THP-1 cells, ELISA; assay type: cell-based; conditions: for synergistic effect on the production of RANTES: sensitizer added to PGN/LPS: MDP 10 μg/ml, f-MLP 1, 10, 100 nM, LPS 25 pg/ml; for Detection threshold / EC50: RANTES; for Detection threshold / EC50 / Sensitivity: without MDP; for Sensitivity: per g of polymer at 25 mg/ml
Method: (§1) The THP-1 cells (88081201, ECACC) are cultured routinely in the laboratory.
(§2) For the pro-inflammatory activation experiments, the THP-1 cells are differentiated for 3 days in the presence of phorbol ester (PMA). In particular, the cells are placed in culture in 200 μl of complete medium in the presence of 20 nM of PMA for 72 h (final cell density: 0.75×10^6 cells/ml).
(§3) The differentiated THP-1 cells (0.75×10^6 cells/ml) are placed in culture in 200 μl of complete medium, and then incubated in the presence of the various test samples.
(§4) Each analysis is carried out in triplicate.
(§5) The cell supernatants are collected in order to assay the secreted cytokines after 8 h of stimulation for TNF-α, and 20 h for RANTES.
(§6) The ELISA assays are carried out according to the indications given by the supplier.
The following experimental conditions are selected: • final concentration of differentiated THP-1 cells: 0.75×10^6 cells/ml, […], • final glucose polymer concentration: 25 mg/ml, • response: ELISA assay of the production of RANTES after 20 h of stimulation.

HEK-BLUE Null2 line = experiment: SEAP production by HEK-BLUE Null2 control line (HEK-Null); assay type: cell-based
Method: (§7) This line, which naturally expresses virtually all the innate immunity receptors, is used as a positive control in the tests.
(§8) The RAW-BLUE and HEK-BLUE cells are cultured according to the supplier's recommendations. In particular, the selection pressure for the plasmids encoding the inflammatory molecule receptors (TLR2 or NOD2) and encoding the SEAP is provided by adding, to the culture medium, the HEK-BLUE Selection/blasticidin antibiotics. At 75% confluence, the cells are resuspended at a cell density of 0.28×10^6 cells/ml. Before stimulation, 180 μl of the cell suspension are distributed into the culture wells (96-well plate), i.e. 50 000 cells/well. The cells are then stimulated for 24 h by adding 20 μl of the test samples (in ten-times concentrated form). The stimulation lasts from 16 to 24 h.
(§9) The production of SEAP in response to the contaminated molecules is estimated by measuring the phosphatase activity according to the protocol supplied by the manufacturer: 20 μl of culture supernatant are diluted in 180 μl of QUANTI-BLUE. The color develops at 37° C. and the reading is carried out, at various times, at 620 nm. The data are expressed as absorbance after subtraction of the background noise, obtained by adding the same volume of nonconditioned culture medium to the reaction medium of the enzyme.

NOD2 = NOD2 (Homo sapiens, UniProt Q9HC29); experiment: SEAP production by HEK-BLUE hNOD2 line (HEK-NOD2); assay type: cell-based
NOD2, sequence (Q9HC29 whole entry): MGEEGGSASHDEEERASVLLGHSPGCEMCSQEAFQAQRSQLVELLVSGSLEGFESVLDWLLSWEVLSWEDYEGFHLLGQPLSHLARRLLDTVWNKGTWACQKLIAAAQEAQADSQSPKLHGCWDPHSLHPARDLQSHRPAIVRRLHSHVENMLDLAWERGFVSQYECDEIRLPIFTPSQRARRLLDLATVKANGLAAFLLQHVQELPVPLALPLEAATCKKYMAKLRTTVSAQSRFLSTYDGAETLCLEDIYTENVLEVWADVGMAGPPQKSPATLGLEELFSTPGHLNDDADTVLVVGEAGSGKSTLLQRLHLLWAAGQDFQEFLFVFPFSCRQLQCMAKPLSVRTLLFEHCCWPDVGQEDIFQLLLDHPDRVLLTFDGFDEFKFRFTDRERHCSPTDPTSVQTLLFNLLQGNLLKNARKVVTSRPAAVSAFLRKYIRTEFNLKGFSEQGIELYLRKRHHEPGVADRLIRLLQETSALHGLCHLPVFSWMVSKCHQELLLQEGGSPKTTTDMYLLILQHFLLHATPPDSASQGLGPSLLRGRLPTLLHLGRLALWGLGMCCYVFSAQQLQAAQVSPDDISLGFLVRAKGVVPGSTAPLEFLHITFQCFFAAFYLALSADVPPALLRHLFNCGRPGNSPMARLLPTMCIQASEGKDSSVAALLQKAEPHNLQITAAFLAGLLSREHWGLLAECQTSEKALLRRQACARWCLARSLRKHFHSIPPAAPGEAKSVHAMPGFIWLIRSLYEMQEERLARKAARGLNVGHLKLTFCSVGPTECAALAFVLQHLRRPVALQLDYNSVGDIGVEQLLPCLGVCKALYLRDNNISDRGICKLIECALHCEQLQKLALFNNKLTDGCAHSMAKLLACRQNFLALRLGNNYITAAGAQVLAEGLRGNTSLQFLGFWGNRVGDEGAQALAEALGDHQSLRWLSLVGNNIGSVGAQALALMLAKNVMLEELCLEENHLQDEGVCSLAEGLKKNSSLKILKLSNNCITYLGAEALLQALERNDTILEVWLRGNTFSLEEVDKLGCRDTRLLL
Source text: (§10) The HEK-BLUE cell lines (InvivoGen) are lines modified by stable transfection with vectors encoding innate immunity receptors. These cells are also cotransfected with a reporter gene which produces a secreted form of alkaline phosphatase (SEAP: secreted embryonic alkaline phosphatase), the synthesis of which is under the direct control of the signaling pathway associated with the receptor(s) expressed in the same cell line.
as §7, §8, §9
In the new procedure referred to as without subculturing, the HEK-NOD2 cells are conditioned in wells (10 000/well) and cultured for three days. Before stimulation, the culture medium is removed and replaced with a medium containing 1% of FCS and the solutions to be assayed. In this case, the SEAP response is 5-6 times greater than the negative control, which is compatible with a test for detecting MDP in contaminated solutions (FIG. 12).
(§11) The following experimental conditions were selected: • final glucose polymer concentration: 37.5 mg/ml for the HEK-BLUE-cells, and 50 mg/ml for the RAW-BLUE cells, • enzymatic reaction: 50 μl of conditioned medium+150 μl of SEAP reagent, • minimum reaction time: 60 min.

THP-1 cells [2] = assay type: cell-based
Method: as §1, §2, §3, §4, §5, §6

mononuclear cells = conditions: background statement, cited from earlier work
RAW-BLUE cells = experiment: SEAP production by RAW-BLUE line; assay type: cell-based, mouse; conditions: for Detection threshold / EC50: RAW-BLUE line; for Sensitivity: per g of polymer at 50 mg/ml
Method: as §7, §8, §9, §11

TLR2 [3] = biological target: T1, TLR2 (Homo sapiens, UniProt O60603); experiment: SEAP production by HEK-BLUE hTLR2 line (HEK-TLR2); assay type: cell-based
T1 sequence (O60603 21-784): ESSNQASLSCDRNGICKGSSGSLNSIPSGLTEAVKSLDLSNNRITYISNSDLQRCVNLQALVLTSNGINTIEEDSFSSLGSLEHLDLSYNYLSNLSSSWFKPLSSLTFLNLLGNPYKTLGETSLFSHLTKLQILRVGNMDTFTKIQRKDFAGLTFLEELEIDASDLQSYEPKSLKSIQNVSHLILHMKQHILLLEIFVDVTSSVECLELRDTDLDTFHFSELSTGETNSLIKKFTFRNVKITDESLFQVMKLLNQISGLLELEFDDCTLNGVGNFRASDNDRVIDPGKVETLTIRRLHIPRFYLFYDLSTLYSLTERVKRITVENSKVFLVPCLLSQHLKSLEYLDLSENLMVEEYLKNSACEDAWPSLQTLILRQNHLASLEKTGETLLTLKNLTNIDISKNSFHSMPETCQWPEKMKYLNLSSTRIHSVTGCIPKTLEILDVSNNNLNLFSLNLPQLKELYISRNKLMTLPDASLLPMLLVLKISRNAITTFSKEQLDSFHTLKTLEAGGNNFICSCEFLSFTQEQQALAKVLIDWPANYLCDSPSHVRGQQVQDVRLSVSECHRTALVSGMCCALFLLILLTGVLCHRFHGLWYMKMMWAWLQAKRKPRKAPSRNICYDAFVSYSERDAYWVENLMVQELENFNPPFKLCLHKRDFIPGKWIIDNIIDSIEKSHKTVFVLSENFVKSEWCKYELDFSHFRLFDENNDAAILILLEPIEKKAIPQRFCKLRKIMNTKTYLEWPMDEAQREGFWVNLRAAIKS
Method: as §10, with “line. […]” for “line.”
as §8, §9, §11

TLR2 [4] = biological target: T1, TLR2; experiment: Peptidoglycan assay method with HEK-BLUE hTLR2 cells, with or without mutanolysin treatment; assay type: cell-based
Method: The assay is based on the specific recognition of PGNs by a line expressing the TLR2 receptor and on the production of an enzymatic activity that is measurable via the activation of the signaling pathway associated with TLR2.
The dose-response curve was produced with standard S. aureus PGN (FIG. 21).
The HEK-BLUE cells are incubated with increasing concentrations of standard, and the cell response is measured by quantifying the enzymatic activity produced.
The result is a conventional sigmoid cell response curve: • part (A) corresponds to the responses obtained with low concentrations of PGN, below those which give effective activation of TLR2. This nonlinear zone therefore corresponds to the threshold limit of detection of the method. In such a way as to include the variability of the method, this detection threshold is estimated at three times the value of the background noise (response obtained in the absence of stimulus). • part (B) is the most interesting since a linear response is observed. This effective-response zone makes it possible to determine a direct relationship between the cell response and the level of PGN. It is therefore the assaying zone; • part (C) corresponds to a saturation of the cell response in the presence of PGN concentrations which are too high. […]
The PGN assays are carried out on glucose polymer solutions. The sample requiring the PGN quantification is incubated with HEK-BLUE hTLR2 cells, and the cell response is measured by quantifying the enzymatic activity produced. The amount of PGN contained in the sample can be determined by referring to the dose-response curves. […]
The samples were treated in the presence of 2500 U/ml of mutanolysin for 16 h at 37° C., and then added to the HEK-TLR2 cells. The cell response was measured by following the activity of the SEAP produced, according to the conditions described in example 3. […]
The absorbance values were reported on the calibration curves established under the same conditions with the standard PGN (FIG. 23), so as to determine the PGN concentrations present in the glucose polymers.

[5] = test of resumption of growth, FIG. 8, supplier's culture procedure

## CC(=O)N[C@H]1C(O)O[C@H](CO)[C@@H](O)[C@@H]1O[C@H](C)C(=O)N[C@@H](C)C(=O)N[C@H](CCC(=O)O)C(N)=O (mixture of isomers) [MDP, muramyl dipeptide]
THP-1 cells [1]; MDP 10 μg/ml
  increase of the sensitivity of the THP-1 cells to LPS and PGN (factor): 5
THP-1 cells [1]; minimum dose 1 μg/ml
  synergistic effect on the production of RANTES and of TNF-α in response to PGN and LPS: does not induce a significant synergistic effect
THP-1 cells [1]
  synergistic effect on the production of RANTES: clearly show a synergistic effect
HEK-BLUE Null2 line
  SEAP response of HEK-Null cells: insensitive
NOD2; HEK-NOD2 line
  Detection threshold: 1.5 ± 0.5 ng/mL
  EC50: 0.012 ± 0.006 µg/mL
NOD2; per g of polymer at 37.5 mg/ml
  Sensitivity: 40 ± 13 ng/g
NOD2; procedure without subculturing, 10 000 cells/well, FIG. 12
  SEAP response relative to the negative control: 5-6 times
NOD2; selected conditions, FIG. 16
  SEAP response of HEK-NOD2 cells: respond effectively
NOD2; [5]
  SEAP response of HEK-NOD2 cells: responds only very weakly
THP-1 cells [2]
  synergistic effect on the production of TNF-α: not very marked

## Lipopolysaccharides [LPS]
THP-1 cells [1]
  Detection threshold: 10 ± 7 pg/mL
  EC50: 0.0009 ± 0.0001 µg/mL
  Sensitivity: 400 ± 280 pg/g
  synergistic effect on the production of RANTES: synergistic effect of the two agonists is visible
Mononuclear cells
  concentration inducing a significant response: about 1 ng/ml
RAW-BLUE cells
  SEAP response of RAW-BLUE cells to inflammatory molecules: weak
  detection threshold relative to that of the sensitized THP-1 cells: approximately 50 times
  Detection threshold: 0.24 ± 0.06 ng/mL
  EC50: >0.01 µg/mL
  Sensitivity: 4.8 ± 1.2 ng/g
THP-1 cells [2]; sensitizer added to PGN/LPS: MDP 10 μg/ml, LPS 25 pg/ml
  synergistic effect on the production of TNF-α: synergistic effect of the two agonists is visible

## Tumor Necrosis Factor alpha [TNF-α]
HEK-BLUE Null2 line
  SEAP response of HEK-Null cells: respond
NOD2; [5]
  SEAP response of HEK-NOD2 cells: responds only very weakly
TLR2 [3]
  SEAP response of HEK-TLR2 cells to inflammatory molecules: respond

## formyl-Met-Leu-Phe tripeptide [f-MLP]
THP-1 cells [1]
  synergistic effect on the production of RANTES: no synergistic effect was observed

## lipoteichoic acid [LTA]
TLR2 [3]
  SEAP response of HEK-TLR2 cells to inflammatory molecules: weaker

## peptidoglycans [PGN]
THP-1 cells [1]
  EC50: 1.2 ± 0.7 µg/mL
  Sensitivity: 580000 ± 340000 pg/g
THP-1 cells [1]; response > 3 x SD of background noise
  Detection threshold: 14500 ± 8500 pg/mL
Mononuclear cells; w/w ratio
  concentration required for a similar response, relative to LPS: at least 100 times
HEK-BLUE Null2 line
  SEAP response of HEK-Null cells: insensitive
RAW-BLUE cells
  SEAP response of RAW-BLUE cells to inflammatory molecules: respond well
  Detection threshold: 2.1 ± 1.5 ng/mL
  EC50: 0.21 ± 0.075 µg/mL
  Sensitivity: 42 ± 30 ng/g
TLR2 [4]; 2500 U/ml, 16 h, 37° C., absence of glucose polymer
  reduction of the response of the HEK-TLR2 cells by mutanolysin treatment: more than 50%
TLR2 [4]; in the presence of 7.5% of polymer
  response of the HEK-TLR2 cells after mutanolysin treatment: improved
TLR2 [4]; in the presence of 37.5% of polymer
  response of the HEK-TLR2 cells after mutanolysin treatment: unchanged
TLR2 [3]
  PGN levels detected by the HEK-TLR2 line: below 2 ng/g of glucose polymer
  SEAP response of HEK-TLR2 cells to inflammatory molecules: responds effectively
  reduction of reactivity for the HEK-TLR2 cells after passing through a 0.22 μm filter: approximately 50%
  sensitivity threshold relative to the sensitized THP-1 cells: 50 times
TLR2 [3]; HEK-TLR2 line
  Detection threshold: 0.07 ± 0.04 ng/mL
  EC50: 0.0031 ± 0.0025 µg/mL
TLR2 [3]; listed as PUN
  SEAP response of HEK-TLR2 cells to inflammatory molecules: respond very effectively
TLR2 [3]; per g of polymer at 37.5 mg/ml
  Sensitivity: 1.9 ± 1.1 ng/g
